Assay results from patent US8304393B2, “Epithelial cell growth promoter” (Patent Technology Development Inc., priority 2004, dated 2012).

Tested on: murine HBKs (hair bulb keratinocytes)
Experiment: HBK growth test (Example 5, AlamarBlue)
Assay type: cell-based, mouse
Conditions: for cell growth effect as compared with that on the control: 4 days culture; for concentration at which significant difference from control could be noted: Dunnett's multiple comparison test, p<0.05
Text: The epithelial cell growth promoters of Examples 1 and 2 and Reference Examples 1 and 2 were subjected to a cell growth test for murine HBKs, respectively. The following culture medium and test medium were used.
DMEM (product code “D-5523”, a product by Sigma)
FBS (product code “10100756”, a product by Cansera International Inc.)
• 10% Penicillin/streptomycin (product code “15140-122”, a product by GIBCO) • 1% (b) Test medium MCDB153 (product code “M7403”, a product by Sigma) Insulin (product code “16634”, bovine, a product by Sigma) • 5 μg/ml Apo-transferrin (product code “T1147”, human, a product by Sigma) • 10 μg/ml EGF (product code “01-101”, murine, a product by Upstate Biotechnology Inc.) • […] BPE (product code “13028-014”, bovine pituitary extract, a product by GIBCO) • 35 μg/ml Water-soluble hydrocortisone (product code “174-00”, a product by NACALAI TESQUE INC.) • 0.5 μg/ml Ethanolamine (product code “012-12455”, a product of Wako Pure Chemical Industries Ltd.) • 100 μM o-phosphorylethanolamine (product code “P0503”, a product by Sigma) • 100 μM
The skin of a 5 day-old mouse was cut with a scalpel into strips of approximately 2-mm-wide skin slices, which were in turn immersed in a solution prepared by dissolving dispase (lot No. 0101, a product by GODO SHUSEI CO.) at a proportion of 500 U/ml in DMEM (product code “D-5523”, a product by Sigma) containing FBS (product code “10100756”, a product by Cansera International Inc.) in a concentration of 5%, and then kept standing at 4° C. for 16 hours. Subsequently, the epidermis was ablated and removed with tweezers from the skin slices to collect only dermis tissues. The thus obtained dermis tissues were immersed in PBS (−) (product code “P-4417”, a product by Sigma) and cut into strips with opthalmological scissors. The thus obtained strips were immersed in a solution prepared by dissolving collagenase (lot No. 001014W, a product by Nitta Gelatin Inc.) in a concentration of 0.2% in DMEM containing FBS in a concentration of 5%, and then digested at 37° C. for 1 hour. After centrifugation at 1000 rpm for 5 minutes, the supernatant was removed, and the residue was supplemented with PBS (−) and gently pipetted to prepare a dermis suspension.
For separating dermal fibroblasts and hair bulbs, the dermis suspension was kept standing for 15 minutes to precipitate only the hair bulbs. The hair bulbs obtained by repeating the “standing to precipitation” procedure three times were immersed in a solution prepared by dissolving, in 2.65 mM EDTA aqueous solution, trypsin in a concentration of 0.25%, and then treated at 37° C. for 5 minutes to prepare a dispersion solution of HBKs.
Next, this dispersion solution was centrifuged at 1000 rpm for 5 minutes. After this centrifugation, the supernatant was removed. The thus obtained HBKs were dispersed in a culture medium, then inoculated into a collagen-coated 96-well microplate, and cultured at 37° C. in an atmosphere containing 5% CO2.
The isoleucyl-glycyl-serine (hereinafter, abbreviated to IGS), prolyl-isoleucyl-glycine (hereinafter, abbreviated to PIG), prolyl-isoleucyl-glycyl-serine (SEQ ID NO: 2) (hereinafter, abbreviated to PIGS), and glycyl-prolyl-isoleucyl-glycine (SEQ ID NO: 1) (hereinafter, abbreviated to GPIG) obtained in Examples 1 and 2 and Reference Examples 1 and 2 were separately dissolved in a test media to prepare 6 types of sample solutions each in a concentration of 0.3 μM, 1 μM, 3 μM, 10 μM, 30 μM, and 100 μM. Only a test medium was used as a control.
After 24 hours from the inoculation of the cells, the culture solutions were removed, and the cultured cells were washed with an MCDB153 solution. Each of the above-mentioned sample solutions was added to the cultured cell at 100 μl/well and cultured at 37° C. in an atmosphere containing 5% CO2. […]

SMILES	cell growth effect as compared with that on the control (0.3 μM) [%]	cell growth effect as compared with that on the control (1 μM) [%]	cell growth effect as compared with that on the control (3 μM) [%]	cell growth effect as compared with that on the control (10 μM) [%]	cell growth effect as compared with that on the control (30 μM) [%]	cell growth effect as compared with that on the control (100 μM) [%]	concentration at which significant difference from control could be noted [µM]
CC[C@H](C)[C@H](N)C(=O)NCC(=O)N[C@@H](CO)C(=O)O (racemic) [IGS, isoleucyl-glycyl-serine]	98	103	106	124	134	133	≥ 10
CC[C@H](C)[C@H](NC(=O)[C@@H]1CCCN1)C(=O)NCC(=O)O (racemic) [PIG, prolyl-isoleucyl-glycine]	101	103	113	132	131	134	≥ 1
CC[C@H](C)[C@H](NC(=O)[C@@H]1CCCN1C(=O)CN)C(=O)NCC(=O)O (racemic) [GPIG, glycyl-prolyl-isoleucyl-glycine]	105	108	118	133	134	138	≥ 0.3
CC[C@H](C)[C@H](NC(=O)[C@@H]1CCCN1)C(=O)NCC(=O)N[C@@H](CO)C(=O)O (racemic) [PIGS, prolyl-isoleucyl-glycyl-serine]	104	103	108	110	127	133	≥ 3
